{"source": "paper PMC7368294", "about": "(Proceedings of the National Academy of Sciences of the …, 2020)", "key": {"[1]": {"target": "T1, Btα1/Btα2/Btα8/Btβ1 nAChR (Bombus terrestris, UniProt A0A9B0BGM1+A0A9B0F4H3+A0A9B2JDZ7+A0A9B2JMX7)", "assay": "two-electrode voltage clamp of Xenopus oocytes, agonist concentration-response", "assay_type": "cell-based"}, "Dα1/Dα2/Dβ1/Dβ2 nAChR": {"target": "Dα1/Dα2/Dβ1/Dβ2 nAChR (Drosophila melanogaster, UniProt P04755+P09478+P17644+P25162)", "assay": "two-electrode voltage clamp of Xenopus oocytes, agonist concentration-response", "assay_type": "cell-based"}, "Amα1/Amα8/Amβ1 nAChR": {"target": "T2, Amα1/Amα8/Amβ1 nAChR (Apis mellifera, UniProt A0A7M7MMZ9+A0A8U0WQ70+A0A8U0WQC0)", "T2 sequence (A0A7M7MMZ9 44-627)": "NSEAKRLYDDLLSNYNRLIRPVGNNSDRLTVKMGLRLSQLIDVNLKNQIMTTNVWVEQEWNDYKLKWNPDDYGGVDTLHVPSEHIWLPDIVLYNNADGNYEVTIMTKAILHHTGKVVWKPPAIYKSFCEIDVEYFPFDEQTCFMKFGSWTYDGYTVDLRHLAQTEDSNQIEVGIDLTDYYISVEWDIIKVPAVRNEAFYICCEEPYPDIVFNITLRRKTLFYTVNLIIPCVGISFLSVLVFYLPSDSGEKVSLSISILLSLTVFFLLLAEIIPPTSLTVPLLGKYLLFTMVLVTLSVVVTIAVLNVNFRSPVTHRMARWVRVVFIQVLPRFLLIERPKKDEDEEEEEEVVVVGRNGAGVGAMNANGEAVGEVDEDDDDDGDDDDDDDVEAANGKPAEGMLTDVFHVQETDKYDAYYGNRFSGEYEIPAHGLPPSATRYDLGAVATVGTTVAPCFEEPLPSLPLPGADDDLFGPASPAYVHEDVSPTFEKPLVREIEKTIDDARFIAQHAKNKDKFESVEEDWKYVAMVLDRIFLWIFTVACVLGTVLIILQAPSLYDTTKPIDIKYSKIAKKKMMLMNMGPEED", "T2 sequence (A0A8U0WQ70 25-537)": "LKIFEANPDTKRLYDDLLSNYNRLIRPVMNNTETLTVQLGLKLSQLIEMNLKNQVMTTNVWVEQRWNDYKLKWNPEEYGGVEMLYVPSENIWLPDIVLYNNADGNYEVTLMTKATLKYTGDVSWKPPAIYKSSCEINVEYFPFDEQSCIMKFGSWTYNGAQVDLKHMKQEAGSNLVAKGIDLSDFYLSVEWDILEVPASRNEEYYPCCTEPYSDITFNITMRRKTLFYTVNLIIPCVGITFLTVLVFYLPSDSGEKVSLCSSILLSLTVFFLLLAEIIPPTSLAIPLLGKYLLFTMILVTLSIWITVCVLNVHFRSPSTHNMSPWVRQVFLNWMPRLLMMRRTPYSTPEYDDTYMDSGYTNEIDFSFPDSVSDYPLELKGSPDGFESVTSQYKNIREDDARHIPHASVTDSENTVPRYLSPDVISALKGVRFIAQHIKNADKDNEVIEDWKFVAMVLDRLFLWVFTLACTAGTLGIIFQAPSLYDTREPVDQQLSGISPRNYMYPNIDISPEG", "T2 sequence (A0A8U0WQC0 25-520)": "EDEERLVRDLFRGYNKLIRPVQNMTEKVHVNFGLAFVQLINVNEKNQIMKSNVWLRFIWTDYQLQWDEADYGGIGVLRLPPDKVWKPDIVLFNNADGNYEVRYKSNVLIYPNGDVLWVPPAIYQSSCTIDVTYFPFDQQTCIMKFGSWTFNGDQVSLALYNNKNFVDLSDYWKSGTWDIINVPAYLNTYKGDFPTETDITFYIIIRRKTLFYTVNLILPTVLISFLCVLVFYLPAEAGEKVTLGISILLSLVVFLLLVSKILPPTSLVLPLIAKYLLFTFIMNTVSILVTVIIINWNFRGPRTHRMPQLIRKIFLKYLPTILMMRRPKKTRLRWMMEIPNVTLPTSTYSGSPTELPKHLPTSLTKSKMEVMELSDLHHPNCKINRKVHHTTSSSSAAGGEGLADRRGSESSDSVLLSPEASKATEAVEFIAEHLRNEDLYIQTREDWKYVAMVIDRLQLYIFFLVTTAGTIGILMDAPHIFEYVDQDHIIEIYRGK", "assay": "two-electrode voltage clamp of Xenopus oocytes, agonist concentration-response", "assay_type": "cell-based"}, "Dα1/Dβ1 nAChR": {"target": "T3, Dα1/Dβ1 nAChR (Drosophila melanogaster, UniProt P04755+P09478)", "T3 sequence (P09478 22-567)": "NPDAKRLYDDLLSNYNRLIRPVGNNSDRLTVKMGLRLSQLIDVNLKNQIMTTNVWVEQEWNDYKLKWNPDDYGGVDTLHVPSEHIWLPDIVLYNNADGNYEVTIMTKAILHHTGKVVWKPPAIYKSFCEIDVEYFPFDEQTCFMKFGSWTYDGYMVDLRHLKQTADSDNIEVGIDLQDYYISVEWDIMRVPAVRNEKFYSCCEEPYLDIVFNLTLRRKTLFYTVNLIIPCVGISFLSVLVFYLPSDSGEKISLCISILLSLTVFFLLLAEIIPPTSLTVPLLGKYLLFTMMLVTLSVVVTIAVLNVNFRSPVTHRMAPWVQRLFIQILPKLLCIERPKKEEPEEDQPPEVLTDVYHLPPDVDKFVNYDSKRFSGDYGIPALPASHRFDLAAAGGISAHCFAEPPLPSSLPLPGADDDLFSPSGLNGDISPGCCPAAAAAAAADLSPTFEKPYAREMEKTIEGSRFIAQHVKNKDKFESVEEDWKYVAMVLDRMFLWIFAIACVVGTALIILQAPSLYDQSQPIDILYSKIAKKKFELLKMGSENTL", "T3 sequence (P04755 25-521)": "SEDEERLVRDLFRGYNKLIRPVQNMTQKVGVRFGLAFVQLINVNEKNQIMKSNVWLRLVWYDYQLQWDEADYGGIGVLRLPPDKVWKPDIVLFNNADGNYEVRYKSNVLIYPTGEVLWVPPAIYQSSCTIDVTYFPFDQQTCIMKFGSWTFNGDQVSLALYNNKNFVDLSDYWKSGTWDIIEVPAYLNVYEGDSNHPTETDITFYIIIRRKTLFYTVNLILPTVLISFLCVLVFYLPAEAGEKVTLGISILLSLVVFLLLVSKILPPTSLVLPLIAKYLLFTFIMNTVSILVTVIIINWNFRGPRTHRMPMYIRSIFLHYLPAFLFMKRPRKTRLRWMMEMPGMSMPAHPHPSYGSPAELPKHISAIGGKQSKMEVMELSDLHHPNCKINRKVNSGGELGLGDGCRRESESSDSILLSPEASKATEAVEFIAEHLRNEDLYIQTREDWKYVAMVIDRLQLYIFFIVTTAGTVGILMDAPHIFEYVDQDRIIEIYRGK", "assay": "cell-based", "design": "species or system Xenopus laevis oocytes", "conditions": "Oocyte"}, "[2]": {"target": "T1, Btα1/Btα2/Btα8/Btβ1 nAChR", "assay": "cell-based", "design": "species or system Xenopus laevis oocytes", "conditions": "Oocyte"}}, "note": "Like-named read-outs stand apart in the source and are kept apart here."}
{"smiles": "O=[N+]([O-])NC1=NCCN1Cc1ccc(Cl)nc1", "note": "[imidacloprid]", "values": [{"measurement": "EC50", "setting": "[1]", "value": 39.8, "unit": "nM"}, {"measurement": "EC50", "setting": "Dα1/Dα2/Dβ1/Dβ2 nAChR", "value": 120, "unit": "nM"}, {"measurement": "EC50", "setting": "Amα1/Amα8/Amβ1 nAChR", "value": 23.4, "unit": "nM"}, {"measurement": "Emax", "setting": "Dα1/Dβ1 nAChR; read-out: Imidacloprid / Imax", "value": "11.2 ± 0.9", "unit": "%"}, {"measurement": "Emax", "setting": "[2]; read-out: Imidacloprid / Imax", "value": "8.5 ± 0.7", "unit": "%"}]}
{"smiles": "CN/C(=N\\[N+](=O)[O-])NCc1cnc(Cl)s1", "note": "[clothianidin]", "values": [{"measurement": "EC50", "setting": "[1]", "value": 38.9, "unit": "nM"}, {"measurement": "EC50", "setting": "Amα1/Amα8/Amβ1 nAChR", "value": 11, "unit": "nM"}, {"measurement": "Emax", "setting": "Dα1/Dβ1 nAChR; read-out: Clothianidin / Imax", "value": "29.6 ± 1.3", "unit": "%"}, {"measurement": "Emax", "setting": "[2]; read-out: Clothianidin / Imax", "value": "68 ± 2.9", "unit": "%"}]}
{"smiles": "N#C/N=C1\\SCCN1Cc1ccc(Cl)nc1", "note": "[thiacloprid]", "values": [{"measurement": "EC50", "setting": "[1]", "value": 72.4, "unit": "nM"}, {"measurement": "EC50", "setting": "Dα1/Dα2/Dβ1/Dβ2 nAChR", "value": 70.8, "unit": "nM"}, {"measurement": "EC50", "setting": "Amα1/Amα8/Amβ1 nAChR", "value": 11.5, "unit": "nM"}, {"measurement": "Emax", "setting": "Dα1/Dβ1 nAChR; read-out: Thiacloprid / Imax", "value": "6.5 ± 0.5", "unit": "%"}, {"measurement": "Emax", "setting": "[2]; read-out: Thiacloprid / Imax", "value": "9.2 ± 1.1", "unit": "%"}]}
